This is an account of results in article PMC11123773, “Identification of New Substrates and Inhibitors of Human CYP2A7” (Molecules, 2024).

Data set [1] addresses T1, CYP2A7-WT (Homo sapiens, UniProt P20853, D169E/H274R/R311C/V479G).
T1 sequence (P20853 1-494 D169E/H274R/R311C/V479G): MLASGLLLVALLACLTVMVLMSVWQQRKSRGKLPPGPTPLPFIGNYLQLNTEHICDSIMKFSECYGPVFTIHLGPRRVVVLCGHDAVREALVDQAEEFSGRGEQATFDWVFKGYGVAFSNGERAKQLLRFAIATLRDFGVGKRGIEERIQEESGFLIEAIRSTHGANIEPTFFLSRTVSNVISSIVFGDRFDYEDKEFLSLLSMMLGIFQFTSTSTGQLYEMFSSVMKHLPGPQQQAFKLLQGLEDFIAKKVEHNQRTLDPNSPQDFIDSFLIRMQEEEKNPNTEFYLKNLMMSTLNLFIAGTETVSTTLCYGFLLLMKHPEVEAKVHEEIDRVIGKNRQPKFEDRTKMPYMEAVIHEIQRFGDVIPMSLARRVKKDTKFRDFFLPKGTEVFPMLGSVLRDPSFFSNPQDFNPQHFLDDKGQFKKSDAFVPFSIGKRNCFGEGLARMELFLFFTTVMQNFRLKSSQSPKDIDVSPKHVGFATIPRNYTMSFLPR
The experiment in a line: Diclofenac biotransformation with enzyme bags, LC-MS analysis of hydroxydiclofenac. Format: biochemical. Set-up: expressed in transfected cells; host or cells: Schizosaccharomyces pombe strain AA01 (pREP1-CYP2A7-WT in CAD62), permeabilized cells (enzyme bags). The note with it: by CYP2A7-WT; diclofenac 100 µM. On the procedure: (§1) This was performed as described previously with slight modifications. Briefly, fission yeast cells were cultured on EMM plates with 5 µM thiamine for 3 days at 30 °C. A single yeast colony was then transferred to a 10 mL liquid culture of EMM without thiamine and cultured at 30 °C and 230 rpm for 36 h. As the recombinant expression of the human enzymes is controlled by the strong endogenous nmt1 promoter, all subsequent cultures were cultured in the absence of thiamine to keep the promoter in an active state. For each activity assay, 5 × 10^7 cells (stationary growth phase) were transferred to 1.5 mL Eppendorf tubes (Axygen; Silicon Valley, USA), pelleted, and incubated in 1 mL of 0.3% Triton-X100 in Tris-KCl buffer (200 mM KCl, 100 mM Tris-HCl pH 7.8) at room temperature for 60 min at 150 rpm for permeabilization. After three washes with 1 mL NH4HCO3 buffer (50 mM, pH 7.8), cells were resuspended in phosphate buffer (pH 7.4) and then the substrate and the NADPH regeneration system were added to a total volume of 50 µL. The samples were incubated at 37 °C and 1000 rpm for 3 h. For LC-MS analysis, the reaction mixture was extracted with an equal amount of ethyl acetate by centrifugation, and the supernatants were stored at −20 °C until use.
(§2) Analytical procedures were performed on an Agilent HPLC/microTOF-Q II instrument equipped with a Kromasil 100-5-C18 (dimensions 4.6 × 250 mm). […]

The target of data set [2] is T2, CYP2A6*1 (Homo sapiens, UniProt P11509).
T2 sequence (P11509 1-494): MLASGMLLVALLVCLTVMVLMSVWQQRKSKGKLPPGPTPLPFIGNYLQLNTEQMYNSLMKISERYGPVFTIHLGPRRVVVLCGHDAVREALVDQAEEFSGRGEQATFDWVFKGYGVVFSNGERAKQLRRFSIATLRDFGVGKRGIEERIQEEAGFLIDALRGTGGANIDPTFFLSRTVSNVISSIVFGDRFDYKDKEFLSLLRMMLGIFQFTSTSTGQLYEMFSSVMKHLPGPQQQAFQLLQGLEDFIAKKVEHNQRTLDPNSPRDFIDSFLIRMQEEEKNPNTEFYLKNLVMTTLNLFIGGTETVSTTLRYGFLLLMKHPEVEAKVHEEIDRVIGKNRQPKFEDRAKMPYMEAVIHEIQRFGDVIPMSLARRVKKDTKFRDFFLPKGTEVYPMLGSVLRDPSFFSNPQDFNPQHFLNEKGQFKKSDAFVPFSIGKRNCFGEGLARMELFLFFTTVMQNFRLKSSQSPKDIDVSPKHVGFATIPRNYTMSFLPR
The description is as above. Format: biochemical. Set-up: expressed in transfected cells; host or cells: Schizosaccharomyces pombe strain RAJ122 (pREP1-CYP2A6*1 in CAD62), permeabilized cells (enzyme bags). The note with it: by CYP2A6*1; diclofenac 100 µM. On the procedure:
as §1, §2

In data set [3] the target is T3, CYP2A7*1 (Homo sapiens, UniProt P20853).
T3 sequence (P20853 1-494): T1 sequence (P20853 1-494 D169E/H274R/R311C/V479G) with E169D, R274H, C311R, G479V
The description is as above. The following applies: by CYP2A7*1; diclofenac 100 µM. Set-up: expressed in transfected cells; host or cells: Schizosaccharomyces pombe strain RAJ127 (pREP1-CYP2A7*1 in CAD62), permeabilized cells (enzyme bags). Type of data set: biochemical. As to the method:
as §1, §2

The target in data set [4] is T2, CYP2A6*1. The following applies: by CYP2A6*1; nicotine 250 µM. As to the method: as §1
(§3) An Agilent HPLC/microTOF-Q II instrument equipped with a LiChrospher 100 RP-18 column was used to carry out all analytical procedures. The mobile phase that we used was a mixture of water with 0.05% formic acid as phase A and 100% acetonitrile as B, run at a constant flow of 0.3 mL/min for 45 min. The gradient used was 0–20 min (80% A: 20% B to 80% B), 20–30 min (100% B), 30–35 min again (100% B), and 35–45 min (80% A: 20% B). We used positive electrospray ionization mode at a capillary voltage of 4.5 kV for mass spectrometry.

Data set [5] deals with T3, CYP2A7*1. The following applies: by CYP2A7*1; nicotine 250 µM. On the procedure: as §1, §3
For data set [6], the target named is T1, CYP2A7-WT. The following applies: by CYP2A7-WT; nicotine 250 µM. As to the method:
as §1, §3

Molecules are shown by their SMILES. Substitutions are numbered along the chain they refer to.

For the compound `O=C(O)Cc1ccccc1Nc1c(Cl)cccc1Cl` [diclofenac], the “Metabolization of diclofenac (hydroxydiclofenac formation)” value at CYP2A7-WT [1], on CYP2A6*1 [2] and on CYP2A7*1 [3] was “produced a diclofenac metabolite that had the mass of hydroxydiclofenac” throughout.

With `CN1CCC[C@H]1c1cccnc1` [nicotine], the “Metabolization of nicotine to the nicotine iminium ion” value on CYP2A6*1 [4] is reported as “confirmed the metabolization”; on CYP2A7*1 [5], “no nicotine metabolite was found”; on CYP2A7-WT [6], “no nicotine metabolite was found”.
